The record followed here is US7709486B2, “CXCR4 antagonists” (Genzyme Corporation, priority 1998, dated 2010).

Each structure is given as a SMILES string. A value given as a limit tells only on which side of the number the result lay.

This series deals with collagen-induced arthritis (CIA).

Description: The experiments were performed in 8- to 12-week old mice, but in each experiment, the mutant and wild-type mice were age-matched with a 5 day limit. The male to female ratio was kept between 0.8 and 1.3 in each experimental group.
Native chicken collagen type II (EPC, Owensvillle, Mo.) was dissolved in 0.05 M acetic acid at 2 mg/ml by stirring overnight at 6° C., and emulsified in an equal volume of incomplete (IFA) or complete Freund's adjuvant (CFA) containing 1.5 mg/ml heat killed Mycobacterium butyricum (Difco, Detroit, Mich.). Mice were sensitized with a single 100 μl intradermal injection of the emulsion at the base of the tail. Mice were examined daily for signs of arthritis. The disease severity was recorded following a scoring system for each limb. Score 0: normal; score 1: redness and/or swelling in one joint; score 2: redness and/or swelling in more than one joint; score 3: redness and/or welling in the entire paw; score 4: deformity and/or ankylosis.
Spleens and fore and hind limbs were fixed in buffered saline—B5fixative (10% formalin with quicksilver). […] Limbs were subsequently decalcified overnight with formic acid. […] Severity of arthritis was evaluated using three parameters: infiltration of mono- and polymorphonuclear cells, hyperplasia of the synovium and parmus formation. Each parameter was scored on a scale from 0 to 3 (absent; weak, moderate and severe).

With `c1cc(CN2CCCNCCNCCCNCC2)ccc1CN1CCCNCCNCCCNCC1` [AMD3100, 1,1′-[1,4-phenylenebis(methylene)]bis-1,4,8,11-tetraazacyclotetradecane], the “Body weight loss compared with control animals” value (collagen-injected mice, treated) is “did not demonstrate any significant body weight loss”. In addition, the “Time until the single affected treated animal developed arthritic pathology” value (post-treatment) is > 20 days.
